What was measured:
[1] = tested on: macrophage cell line (THP-1); assay: Flow cytometry binding to macrophage/monocyte cell line with or without LPS; settings: presence or absence of LPS
E. coli = E. coli growth (CFUs) incubated with human peripheral blood leukocytes with and without PeptideX2; assay type: cell-based; settings: E. coli with WBCs and PeptideX2; 10 hours; FIG. 11
Description: To test this hypothesis, human peripheral white cells were incubated with E. coli in the presence and absence of PeptideX2.
Human peripheral blood leukocytes (WBCs) were obtained from healthy donors with informed consent. Three test groups were inoculated with E. coli and incubated for 10 hours. The three groups were E. coli with serum alone, E. coli with WBCs, and E. coli with WBCs with PeptideX2. Samples were taken at 0, 2, 4, 6 and 10 hours and plated for colony forming units (CFUs). […] In a separate but similar experiment, nine test groups (E. coli with serum alone, E. coli with WBCs, and E. coli with WBCs with PeptideX2 at each of seven indicated concentrations, see FIG. 12) were incubated over a time course of three hours, with quantification of bacterial CFU performed at times 0, 1.5 and 3 hours (FIG. 12).

peripheral blood cells = assay: Cytokine production by human peripheral blood cells in culture (MSD panel); assay type: cell-based
Description: In order to examine the biological activity of IgX, cytokine production from human peripheral whole blood samples incubated with IgX was measured. Peripheral whole blood samples from three different donors (#66, 67, and 85) were obtained with appropriate informed consent and incubated with concentrations of IgX ranging from 0 to 200 ug/ml.
Protein A purified IgX was prepared from placental sample BC, brought to 0.05 M phosphate, 0.15 M NaCl buffer, pH 7.4, treated with an endotoxin affinity column (ActiClean Etox™ from Sterogene, Carlsbad, Calif.) according to the supplier's instructions, and then sent to IBT Bioservices (Gaithersburg, Md.) for human peripheral blood testing. […] All peripheral blood cells were suspended in RPMI-1640 media. Various concentrations of IgX were incubated with peripheral blood cells from donor D66 for 18 hours, and then the samples were stimulated with 1 ug/ml of PHA, 50 ng/ml of LPS, or 10 ng/ml of IFNγ (200 U/ml) for four hours. Samples of culture supernatant fluids were tested in duplicate for the presence of IL-2, IL-4, IL-6, IL-10, IL-12, and TNFα using a Meso Scale Discovery (MSD, Gaithersburg, Md.) panel.
PeptideX1 and PeptideX2 were incubated with peripheral blood cells from donor D67 as described above and tested in duplicate for IL-6 activity. […]

Q: Which “binding to monocyte cell line” value [1] does the source give for “KSIAYLQMNSLK (Peptide fragment) [PeptideX2]” here?
A: without any binding

Q: And the “E. coli CFUs” value (E. coli)?
A: rapid rise in CFUs

Q: And the “IL-6 production compared to peptideX1” value (peripheral blood cells; cells from donor #67, FIG. 7)?
A: significantly greater

Q: What about the IL-6 production (peripheral blood cells; cells from donor #85, PeptideX2 0-200 ug/ml, FIG. 9) of the same sequence?
A: enhanced production

Reference: US9816989B2, “Immunologically active polypeptide” (Institute of Arthritis Research, LLC, priority 2013, dated 2017)
